Test system: male C57BL6 mice
Test: Mouse head-twitch response (HTR)
Assay type: in vivo
Details: mice pretreated with M100907 prior to compound
Procedure: Male, C57BL/6J mice (body weight range 20-30 g) were dosed with the appropriate dose of test article, and following a 1-minute pre-treatment time, placed in individual observation chambers. Animals were visually assessed for the incidence head twitches continuously over a 1 hr period. Head twitches were defined as a rapid jerk of the head which was not elicited by an external tactile stimulus (Come and Pickering, Psychopharmacologia, 1967, 11(1): 65-78). Each head twitch was individually counted by a trained observer, and the data expressed as the mean±SEM of 6-10 mice per group. Mice were used in a single experiment only.
Dose response (0.3-3 mg/kg SC) 5-HT2A signs of WDS/BMC measured over 1h. Also locomotor activity and other 5-HT receptor signs measured. For example, the effect on various doses of exemplary compound of Formula I-B, I-B-1, on head-twitch response (HTR) in male C57BL6 mice was studied. The mice were treated with exemplary compound I-B-1 (0.03-10 mg/kg) by SC route in a vehicle of 10% DMSO in Saline (2 drops HCl (0.1M)+1 drop Tween 80 were added), and the total number of head twitches were recorded over a one hour period. Data is expressed as mean±SEM (see, FIG. 1).

COc1cccc([C@H](O)C2CCN(CCc3ccc(F)cc3)CC2)c1OC [Compound M100907]
effect of pretreatment with 5-HT2AR antagonist on HTR induced by compounds of Formula I-B: completely blocked
